Reference: ChEMBL document CHEMBL4616621, “Pro-apoptotic carboxamide analogues of natural fislatifolic acid targeting Mcl-1 and Bcl-2” (Bioorg Med Chem Lett, 2020)

Target: Induced myeloid leukemia cell differentiation protein Mcl-1 (Homo sapiens, UniProt Q07820)
Assay: Inhibition of Mcl-1 (unknown origin)/Bid interaction preincubated for 5 mins followed by fluorescein-labeled peptide addition and measured after 10 mins by fluorescein-labeled peptide displacement based fluorescence polarization assay

Sequence of Induced myeloid leukemia cell differentiation protein Mcl-1 (Q07820 whole entry): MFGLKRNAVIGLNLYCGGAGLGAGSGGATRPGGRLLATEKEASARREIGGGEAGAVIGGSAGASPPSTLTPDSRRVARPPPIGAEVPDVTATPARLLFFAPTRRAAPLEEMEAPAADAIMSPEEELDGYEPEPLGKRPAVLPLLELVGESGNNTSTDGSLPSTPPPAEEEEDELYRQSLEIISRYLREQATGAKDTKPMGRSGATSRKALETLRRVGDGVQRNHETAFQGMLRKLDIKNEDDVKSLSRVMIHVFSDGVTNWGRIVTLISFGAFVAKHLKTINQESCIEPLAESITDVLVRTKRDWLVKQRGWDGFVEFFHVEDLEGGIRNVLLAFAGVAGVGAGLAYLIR

Structure (SMILES)	Ki [µM]
CC(C)=CCCC1=CC[C@@H](C(=O)N(C)C)[C@H](c2ccccc2)C1	> 33
CC(C)=CCCC1=CC[C@H](C(=O)Nc2ccc(C(=O)O)cc2)[C@@H](c2ccccc2)C1	8.5
CC(C)=CCCC1=CC[C@H](C(=O)N(C)C)[C@@H](c2ccccc2)C1	5.4
CC(C)=CCCC1=CC[C@@H](C(N)=O)[C@H](c2ccccc2)C1	> 33
CC(C)=CCCC1=CC[C@@H](C(=O)Nc2ccc(O)cc2)[C@H](c2ccccc2)C1	> 33
CC(C)=CCCC1=CC[C@H](C(=O)NCCC(=O)O)[C@@H](c2ccccc2)C1	> 33
COc1ccc(NC(=O)[C@@H]2CC=C(CCC=C(C)C)C[C@H]2c2ccccc2)cc1	> 33
CONC(=O)[C@@H]1CC=C(CCC=C(C)C)C[C@H]1c1ccccc1	> 33
CC(C)=CCCC1=CC[C@@H](C(=O)N(C)O)[C@H](c2ccccc2)C1	9.2
CC1(C)CCCC2=C1C[C@H](C(=O)O)[C@@H](c1ccccc1)C2	9
COC(=O)c1ccc(NC(=O)[C@H]2CC=C(CCC=C(C)C)C[C@@H]2c2ccccc2)cc1	> 33
COC(=O)CCNC(=O)[C@@H]1CC=C(CCC=C(C)C)C[C@H]1c1ccccc1	15
CC(C)=CCCC1=CC[C@@H](C(=O)NCCC(=O)O)[C@H](c2ccccc2)C1	> 33
CC(C)=CCCC1=CC[C@@H](C(=O)Nc2ccc(C(=O)O)cc2)[C@H](c2ccccc2)C1	> 33
CC(C)=CCCC1=CC[C@H](C(N)=O)[C@@H](c2ccccc2)C1	> 33

Target: Bcl-2-like protein 1 (Homo sapiens, UniProt Q07817)
Assay: Inhibition of Bcl-xL (unknown origin)/Bak interaction preincubated for 5 mins followed by fluorescein-labeled peptide addition and measured after 10 mins by fluorescein-labeled peptide displacement based fluorescence polarization assay

Sequence of Bcl-2-like protein 1 (Q07817 whole entry): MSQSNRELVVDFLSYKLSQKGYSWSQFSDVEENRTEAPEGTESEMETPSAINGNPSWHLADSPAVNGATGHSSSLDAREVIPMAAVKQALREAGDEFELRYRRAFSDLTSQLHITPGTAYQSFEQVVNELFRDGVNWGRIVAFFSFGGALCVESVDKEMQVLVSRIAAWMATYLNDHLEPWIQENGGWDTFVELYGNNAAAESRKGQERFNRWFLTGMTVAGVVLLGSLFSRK

Structure (SMILES)	Ki [µM]
CC(C)=CCCC1=CC[C@@H](C(=O)N(C)C)[C@H](c2ccccc2)C1	> 23
CC(C)=CCCC1=CC[C@H](C(=O)Nc2ccc(C(=O)O)cc2)[C@@H](c2ccccc2)C1	> 23
CC(C)=CCCC1=CC[C@H](C(=O)N(C)C)[C@@H](c2ccccc2)C1	20.1
CC(C)=CCCC1=CC[C@@H](C(N)=O)[C@H](c2ccccc2)C1	> 23
CC(C)=CCCC1=CC[C@@H](C(=O)Nc2ccc(O)cc2)[C@H](c2ccccc2)C1	> 23
CC(C)=CCCC1=CC[C@H](C(=O)NCCC(=O)O)[C@@H](c2ccccc2)C1	> 23
COc1ccc(NC(=O)[C@@H]2CC=C(CCC=C(C)C)C[C@H]2c2ccccc2)cc1	> 23
CONC(=O)[C@@H]1CC=C(CCC=C(C)C)C[C@H]1c1ccccc1	> 23
CC(C)=CCCC1=CC[C@@H](C(=O)N(C)O)[C@H](c2ccccc2)C1	> 23
CC1(C)CCCC2=C1C[C@H](C(=O)O)[C@@H](c1ccccc1)C2	> 23
COC(=O)c1ccc(NC(=O)[C@H]2CC=C(CCC=C(C)C)C[C@@H]2c2ccccc2)cc1	> 23
COC(=O)CCNC(=O)[C@@H]1CC=C(CCC=C(C)C)C[C@H]1c1ccccc1	> 23
CC(C)=CCCC1=CC[C@@H](C(=O)NCCC(=O)O)[C@H](c2ccccc2)C1	> 23
CC(C)=CCCC1=CC[C@@H](C(=O)Nc2ccc(C(=O)O)cc2)[C@H](c2ccccc2)C1	> 23
CC(C)=CCCC1=CC[C@H](C(N)=O)[C@@H](c2ccccc2)C1	> 23

Target: Apoptosis regulator Bcl-2 (Homo sapiens, UniProt P10415)
Assay: Inhibition of Bcl2 (unknown origin)/Bim interaction preincubated for 5 mins followed by fluorescein-labeled peptide addition and measured after 10 mins by fluorescein-labeled peptide displacement based fluorescence polarization assay

Sequence of Apoptosis regulator Bcl-2 (P10415 whole entry): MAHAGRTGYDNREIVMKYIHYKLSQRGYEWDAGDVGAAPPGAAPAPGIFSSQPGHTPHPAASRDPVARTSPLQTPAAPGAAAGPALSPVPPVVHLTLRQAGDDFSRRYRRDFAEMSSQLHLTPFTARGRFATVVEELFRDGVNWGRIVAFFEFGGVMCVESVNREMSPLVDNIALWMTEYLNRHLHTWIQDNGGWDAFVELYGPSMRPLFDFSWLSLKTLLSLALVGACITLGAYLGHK

Structure (SMILES)	Ki [µM]
CC(C)=CCCC1=CC[C@@H](C(=O)N(C)C)[C@H](c2ccccc2)C1	> 23
CC(C)=CCCC1=CC[C@H](C(=O)Nc2ccc(C(=O)O)cc2)[C@@H](c2ccccc2)C1	> 23
CC(C)=CCCC1=CC[C@H](C(=O)N(C)C)[C@@H](c2ccccc2)C1	> 23
CC(C)=CCCC1=CC[C@@H](C(N)=O)[C@H](c2ccccc2)C1	> 23
CC(C)=CCCC1=CC[C@@H](C(=O)Nc2ccc(O)cc2)[C@H](c2ccccc2)C1	> 23
CC(C)=CCCC1=CC[C@H](C(=O)NCCC(=O)O)[C@@H](c2ccccc2)C1	> 23
COc1ccc(NC(=O)[C@@H]2CC=C(CCC=C(C)C)C[C@H]2c2ccccc2)cc1	> 23
CONC(=O)[C@@H]1CC=C(CCC=C(C)C)C[C@H]1c1ccccc1	2.7
CC(C)=CCCC1=CC[C@@H](C(=O)N(C)O)[C@H](c2ccccc2)C1	2.3
CC1(C)CCCC2=C1C[C@H](C(=O)O)[C@@H](c1ccccc1)C2	> 23
COC(=O)c1ccc(NC(=O)[C@H]2CC=C(CCC=C(C)C)C[C@@H]2c2ccccc2)cc1	> 23
COC(=O)CCNC(=O)[C@@H]1CC=C(CCC=C(C)C)C[C@H]1c1ccccc1	> 23
CC(C)=CCCC1=CC[C@@H](C(=O)NCCC(=O)O)[C@H](c2ccccc2)C1	> 23
CC(C)=CCCC1=CC[C@@H](C(=O)Nc2ccc(C(=O)O)cc2)[C@H](c2ccccc2)C1	2.2
CC(C)=CCCC1=CC[C@H](C(N)=O)[C@@H](c2ccccc2)C1	> 23

Tested on: A549
Assay: Antiproliferative activity against human A549 cells assessed as cell death
Assay type: functional, cell-based

Structure (SMILES)	IC50 [µM]
CCCCCC[C@H]1C(=O)O[C@H](C)[C@H](NC(=O)c2cccc(NC=O)c2O)C(=O)O[C@@H](C)[C@@H]1OC(=O)CC(C)C [ANTIMYCIN A]	6.5
